Columns and labels:
human serum = experiment: Plasma protein binding assay; assay type: in vitro ADME; settings: for filter-bound radioactivity: n=3
Procedure: 1.16 Plasma Protein Binding Assay
Plasma protein binding assays were performed according to literature methods.^19 Briefly, 37 kBq of ^177Lu-PSMA-617 or ^177Lu-HTK01169 in 50 μL PBS was added into 200 μL human serum and the mixture was incubated at room temperature for […]. The mixture was then loaded onto a membrane filter (Nanosep®, 30 K, Pall Corporation, USA) and centrifuged for 45 min (30,130×g). Saline (50 μL) was added and centrifugation was continued for another 15 min. The top part with the membrane filter and the bottom part with the solution were counted on a gamma counter. For control, saline was used in place of human serum.

[1] = test system: mice bearing LNCaP xenografts; experiment: Biodistribution of 177Lu-labeled compounds; assay type: in vivo
Procedure: 1.17 SPECT/CT Imaging, Biodistribution and Endoradiotherapy Studies
(§1) SPECT/CT imaging and biodistribution were performed using NOD-scid IL2Rgammanu^null (NSG) male mice, and the endoradiotherapy study was conducted using NOD.Cg-Rag1^tm1MomII2rg^tm1WjI/SzJ (NRG) male mice. The mice were maintained and the experiments were conducted in according to the guidelines established by the Canadian Council on Animal Care and approved by Animal Ethics Committee of the University of British Columbia. Mice were anesthetized by inhalation with 2% isoflurane in oxygen, and implanted subcutaneously with 1×10^7 LNCaP cells posterior to the left shoulder. Mice were used for studies when the tumor reached 5-8 mm in diameter 5-6 weeks after inoculation.
For biodistribution studies, the mice were injected with ^177Ludabeled PSMA-617 or HTK01169 (2-4 MBq) as described above. At predetermined time points (1, 4, 24, 72, or 120 h post-injection), the mice were euthanized by CO2 inhalation. Blood was withdrawn immediately from the heart, and the organs/tissues of interest were collected. The collected organs/tissues were weighed and counted using an automated gamma counter. For the blocking study, mice were co-injected with ^177Lu-HTK01169 (2-4 MBq) and 50 nmol of the non-radioactive standard, and organs/tissues of interest were collected at 4 h post-injection.

LNCaP tumor-bearing mice = experiment: Endoradiotherapy study; assay type: in vivo; settings: for Median survival: n=8
Procedure: as §1
For radiotherapy study, tumor-bearing mice were injected with saline (the control group), ^177Lu-PSMA-617 (18.5 MBq) or ^177Lu-HTK01169 (18.5, 9.3, 4.6, or 2.3 MBq) (n=8 per group). Tumor size and body weight were measured twice a week from the date of injection (Day 0) until completion of the study (Day 120). Endpoint criteria were defined as >20% weight loss, tumor volume >1000 mm^3, or active ulceration of the tumor.

[2] = 4 h post-injection, blocking (co-injection of 50 nmol non-radioactive standard)

SMILES: O=C([O-])CN1CCN(CC(=O)[O-])CCN(CC(=O)NCCCC[C@H](NC(=O)[C@H](CCC(=O)O)NC(=O)CCCc2ccc(I)cc2)C(=O)NC[C@H]2CC[C@H](C(=O)N[C@@H](Cc3ccc4ccccc4c3)C(=O)NCCCC[C@H](NC(=O)N[C@@H](CCC(=O)O)C(=O)O)C(=O)O)CC2)CCN(CC(=O)[O-])CC1.[177Lu+3] [^177Lu-HTK01169]
- free radioligand (human serum; human serum): < 1%
- filter-bound radioactivity (human serum; incubated with human serum): 99.2±0.02%
- filter-bound radioactivity (human serum; incubated with saline (control)): 25.8±3.42%
- Adrenal glands uptake ([1]; 1 h post-injection): 9.94 ± 2.10 % ID/g
- Blood uptake ([1]; 1 h post-injection): 16.6 ± 1.85 % ID/g
- Bone uptake ([1]; 1 h post-injection): 0.93 ± 0.31 % ID/g
- Brain uptake ([1]; 1 h post-injection): 0.18 ± 0.07 % ID/g
- Fat uptake ([1]; 1 h post-injection): 3.20 ± 1.03 % ID/g
- Heart uptake ([1]; 1 h post-injection): 3.93 ± 0.95 % ID/g
- Intestine uptake ([1]; 1 h post-injection): 1.64 ± 0.20 % ID/g
- Kidneys uptake ([1]; 1 h post-injection): 51.1 ± 4.07 % ID/g
- Liver uptake ([1]; 1 h post-injection): 2.55 ± 0.45 % ID/g
- Lung uptake ([1]; 1 h post-injection): 7.11 ± 0.98 % ID/g
- Muscle uptake ([1]; 1 h post-injection): 1.39 ± 0.12 % ID/g
- Pancreas uptake ([1]; 1 h post-injection): 1.77 ± 0.24 % ID/g
- Seminal uptake ([1]; 1 h post-injection): 1.02 ± 0.15 % ID/g
- Spleen uptake ([1]; 1 h post-injection): 10.6 ± 4.07 % ID/g
- Stomach uptake ([1]; 1 h post-injection): 0.50 ± 0.15 % ID/g
- Testes uptake ([1]; 1 h post-injection): 2.14 ± 0.31 % ID/g
- Tumor uptake ([1]; 1 h post-injection): 13.4 ± 3.26 % ID/g
- Tumor/blood ratio ([1]; 1 h post-injection): 0.81 ± 0.18
- Tumor/kidney ratio ([1]; 1 h post-injection): 0.26 ± 0.05
- Tumor/muscle ratio ([1]; 1 h post-injection): 9.76 ± 2.65
- Adrenal glands uptake ([1]; 4 h post-injection): 9.91 ± 2.55 % ID/g
- Blood uptake ([1]; 4 h post-injection): 10.2 ± 1.40 % ID/g
- Bone uptake ([1]; 4 h post-injection): 0.79 ± 0.30 % ID/g
- Brain uptake ([1]; 4 h post-injection): 0.16 ± 0.01 % ID/g
- Fat uptake ([1]; 4 h post-injection): 2.95 ± 0.81 % ID/g
- Heart uptake ([1]; 4 h post-injection): 2.50 ± 0.54 % ID/g
- Intestine uptake ([1]; 4 h post-injection): 1.25 ± 0.17 % ID/g
- Kidneys uptake ([1]; 4 h post-injection): 85.7 ± 7.11 % ID/g
- Liver uptake ([1]; 4 h post-injection): 1.97 ± 0.05 % ID/g
- Lung uptake ([1]; 4 h post-injection): 5.92 ± 0.22 % ID/g
- Muscle uptake ([1]; 4 h post-injection): 0.98 ± 0.06 % ID/g
- Pancreas uptake ([1]; 4 h post-injection): 1.51 ± 0.28 % ID/g
- Seminal uptake ([1]; 4 h post-injection): 1.07 ± 0.62 % ID/g
- Spleen uptake ([1]; 4 h post-injection): 8.05 ± 3.62 % ID/g
- Stomach uptake ([1]; 4 h post-injection): 0.57 ± 0.11 % ID/g
- Testes uptake ([1]; 4 h post-injection): 1.91 ± 0.63 % ID/g
- Tumor/blood ratio ([1]; 4 h post-injection): 2.71 ± 0.68
- Tumor/kidney ratio ([1]; 4 h post-injection): 0.32 ± 0.07
- Tumor/muscle ratio ([1]; 4 h post-injection): 28.0 ± 6.92
- Adrenal glands uptake [1, 2]: 0.68 ± 0.24 % ID/g
- Blood uptake [1, 2]: 0.96 ± 0.25 % ID/g
- Bone uptake [1, 2]: 0.12 ± 0.04 % ID/g
- Brain uptake [1, 2]: 0.03 ± 0.00 % ID/g
- Fat uptake [1, 2]: 0.25 ± 0.13 % ID/g
- Heart uptake [1, 2]: 0.41 ± 0.07 % ID/g
- Intestine uptake [1, 2]: 0.25 ± 0.10 % ID/g
- Kidneys uptake [1, 2]: 5.50±1.95 % ID/g
- Liver uptake [1, 2]: 0.51 ± 0.08 % ID/g
- Lung uptake [1, 2]: 0.89 ± 0.29 % ID/g
- Muscle uptake [1, 2]: 0.12 ± 0.02 % ID/g
- Pancreas uptake [1, 2]: 0.19 ± 0.02 % ID/g
- Seminal uptake [1, 2]: 0.19 ± 0.13 % ID/g
- Spleen uptake [1, 2]: 0.61 ± 0.17 % ID/g
- Stomach uptake [1, 2]: 0.19 ± 0.10 % ID/g
- Testes uptake [1, 2]: 0.58 ± 0.14 % ID/g
- Tumor uptake [1, 2]: 1.70±0.28 % ID/g
- Tumor/blood ratio [1, 2]: 1.81 ± 0.31
- Tumor/kidney ratio [1, 2]: 0.32 ± 0.06
- Tumor/muscle ratio [1, 2]: 13.7 ± 1.47
- Adrenal glands uptake ([1]; 24 h post-injection): 4.53 ± 1.10 % ID/g
- Blood uptake ([1]; 24 h post-injection): 2.10 ± 0.41 % ID/g
- Bone uptake ([1]; 24 h post-injection): 0.26 ± 0.05 % ID/g
- Brain uptake ([1]; 24 h post-injection): 0.06 ± 0.01 % ID/g
- Fat uptake ([1]; 24 h post-injection): 2.06 ± 0.71 % ID/g
- Heart uptake ([1]; 24 h post-injection): 0.83 ± 0.25 % ID/g
- Intestine uptake ([1]; 24 h post-injection): 0.45 ± 0.13 % ID/g
- Kidneys uptake ([1]; 24 h post-injection): 125 ± 16.4 % ID/g
- Liver uptake ([1]; 24 h post-injection): 1.03 ± 0.22 % ID/g
- Lung uptake ([1]; 24 h post-injection): 1.98 ± 0.44 % ID/g
- Muscle uptake ([1]; 24 h post-injection): 0.39 ± 0.07 % ID/g
- Pancreas uptake ([1]; 24 h post-injection): 0.59 ± 0.12 % ID/g
- Seminal uptake ([1]; 24 h post-injection): 0.36 ± 0.13 % ID/g
- Spleen uptake ([1]; 24 h post-injection): 3.70 ± 1.67 % ID/g
- Stomach uptake ([1]; 24 h post-injection): 0.34 ± 0.12 % ID/g
- Testes uptake ([1]; 24 h post-injection): 1.19 ± 0.23 % ID/g
- Tumor uptake ([1]; 24 h post-injection): 55.9±12.5 % ID/g
- Tumor/blood ratio ([1]; 24 h post-injection): 26.7 ± 2.79
- Tumor/kidney ratio ([1]; 24 h post-injection): 0.45 ± 0.13
- Tumor/muscle ratio ([1]; 24 h post-injection): 142 ± 14.4
- Adrenal glands uptake ([1]; 72 h post-injection): 1.65 ± 0.46 % ID/g
- Blood uptake ([1]; 72 h post-injection): 0.28 ± 0.10 % ID/g
- Bone uptake ([1]; 72 h post-injection): 0.11 ± 0.03 % ID/g
- Brain uptake ([1]; 72 h post-injection): 0.03 ± 0.00 % ID/g
- Fat uptake ([1]; 72 h post-injection): 1.34 ± 0.72 % ID/g
- Heart uptake ([1]; 72 h post-injection): 0.28 ± 0.04 % ID/g
- Intestine uptake ([1]; 72 h post-injection): 0.13 ± 0.06 % ID/g
- Kidneys uptake ([1]; 72 h post-injection): 37.8 ± 18.7 % ID/g
- Liver uptake ([1]; 72 h post-injection): 0.46 ± 0.12 % ID/g
- Lung uptake ([1]; 72 h post-injection): 0.51 ± 0.17 % ID/g
- Muscle uptake ([1]; 72 h post-injection): 0.11 ± 0.02 % ID/g
- Pancreas uptake ([1]; 72 h post-injection): 0.15 ± 0.02 % ID/g
- Seminal uptake ([1]; 72 h post-injection): 0.12 ± 0.04 % ID/g
- Spleen uptake ([1]; 72 h post-injection): 1.13 ± 0.32 % ID/g
- Stomach uptake ([1]; 72 h post-injection): 0.17 ± 0.12 % ID/g
- Testes uptake ([1]; 72 h post-injection): 0.62 ± 0.11 % ID/g
- Tumor uptake ([1]; 72 h post-injection): 53.6 ± 8.06 % ID/g
- Tumor/blood ratio ([1]; 72 h post-injection): 204 ± 63.5
- Tumor/kidney ratio ([1]; 72 h post-injection): 1.63 ± 0.58
- Tumor/muscle ratio ([1]; 72 h post-injection): 519 ± 91.5
- Adrenal glands uptake ([1]; 120 h post-injection): 0.65 ± 0.21 % ID/g
- Blood uptake ([1]; 120 h post-injection): 0.06 ± 0.03 % ID/g
- Bone uptake ([1]; 120 h post-injection): 0.08 ± 0.01 % ID/g
- Brain uptake ([1]; 120 h post-injection): 0.03 ± 0.00 % ID/g
- Fat uptake ([1]; 120 h post-injection): 0.73 ± 0.13 % ID/g
- Heart uptake ([1]; 120 h post-injection): 0.16 ± 0.07 % ID/g
- Intestine uptake ([1]; 120 h post-injection): 0.10 ± 0.06 % ID/g
- Kidneys uptake ([1]; 120 h post-injection): 8.63 ± 2.51 % ID/g
- Liver uptake ([1]; 120 h post-injection): 0.34 ± 0.23 % ID/g
- Lung uptake ([1]; 120 h post-injection): 0.17 ± 0.04 % ID/g
- Muscle uptake ([1]; 120 h post-injection): 0.04 ± 0.01 % ID/g
- Pancreas uptake ([1]; 120 h post-injection): 0.07 ± 0.02 % ID/g
- Seminal uptake ([1]; 120 h post-injection): 0.08 ± 0.04 % ID/g
- Spleen uptake ([1]; 120 h post-injection): 1.18 ± 0.55 % ID/g
- Stomach uptake ([1]; 120 h post-injection): 0.21 ± 0.20 % ID/g
- Testes uptake ([1]; 120 h post-injection): 0.40 ± 0.05 % ID/g
- Tumor uptake ([1]; 120 h post-injection): 56.4±13.2 % ID/g
- Tumor/blood ratio ([1]; 120 h post-injection): 1146 ± 722
- Tumor/kidney ratio ([1]; 120 h post-injection): 7.12 ± 3.11
- Tumor/muscle ratio ([1]; 120 h post-injection): 1708 ± 718
- fold higher peak tumor uptake than 177Lu-PSMA-617 ([1]; LNCaP tumor xenografts): 3.7 fold
- blood clearance (qualitative) ([1]; mouse, in vivo): relatively slower than ^177Lu-PSMA-617
- peaked tumor uptake ([1]; peak over 1-120 h): 55.9±12.5 % ID/g
- change of tumor size over time, dependence on injected radioactivity (LNCaP tumor-bearing mice; 2.3-18.5 MBq): higher radioactivity leading to more effective and prolonged tumor growth inhibition
- Median survival (LNCaP tumor-bearing mice; 2.3 MBq injected): 28 days
- Median survival (LNCaP tumor-bearing mice; 4.6 MBq injected): 61 days
- Median survival (LNCaP tumor-bearing mice; 9.3 MBq injected): 103 days
- survival until end of study (Day 120) (LNCaP tumor-bearing mice; 18.5 MBq): survived until the end of the study
- Median survival (LNCaP tumor-bearing mice; 18.5 MBq injected): >120 days
- administered activity needed for similar treatment efficacy, relative to 177Lu-PSMA-617 (LNCaP tumor-bearing mice; mouse, in vivo): only a quarter
